Data set [1] addresses T1, Phosphatidylinositol 4,5-bisphosphate 3-kinase catalytic subunit delta isoform (Homo sapiens, UniProt O00329).
T1 sequence (O00329 whole entry): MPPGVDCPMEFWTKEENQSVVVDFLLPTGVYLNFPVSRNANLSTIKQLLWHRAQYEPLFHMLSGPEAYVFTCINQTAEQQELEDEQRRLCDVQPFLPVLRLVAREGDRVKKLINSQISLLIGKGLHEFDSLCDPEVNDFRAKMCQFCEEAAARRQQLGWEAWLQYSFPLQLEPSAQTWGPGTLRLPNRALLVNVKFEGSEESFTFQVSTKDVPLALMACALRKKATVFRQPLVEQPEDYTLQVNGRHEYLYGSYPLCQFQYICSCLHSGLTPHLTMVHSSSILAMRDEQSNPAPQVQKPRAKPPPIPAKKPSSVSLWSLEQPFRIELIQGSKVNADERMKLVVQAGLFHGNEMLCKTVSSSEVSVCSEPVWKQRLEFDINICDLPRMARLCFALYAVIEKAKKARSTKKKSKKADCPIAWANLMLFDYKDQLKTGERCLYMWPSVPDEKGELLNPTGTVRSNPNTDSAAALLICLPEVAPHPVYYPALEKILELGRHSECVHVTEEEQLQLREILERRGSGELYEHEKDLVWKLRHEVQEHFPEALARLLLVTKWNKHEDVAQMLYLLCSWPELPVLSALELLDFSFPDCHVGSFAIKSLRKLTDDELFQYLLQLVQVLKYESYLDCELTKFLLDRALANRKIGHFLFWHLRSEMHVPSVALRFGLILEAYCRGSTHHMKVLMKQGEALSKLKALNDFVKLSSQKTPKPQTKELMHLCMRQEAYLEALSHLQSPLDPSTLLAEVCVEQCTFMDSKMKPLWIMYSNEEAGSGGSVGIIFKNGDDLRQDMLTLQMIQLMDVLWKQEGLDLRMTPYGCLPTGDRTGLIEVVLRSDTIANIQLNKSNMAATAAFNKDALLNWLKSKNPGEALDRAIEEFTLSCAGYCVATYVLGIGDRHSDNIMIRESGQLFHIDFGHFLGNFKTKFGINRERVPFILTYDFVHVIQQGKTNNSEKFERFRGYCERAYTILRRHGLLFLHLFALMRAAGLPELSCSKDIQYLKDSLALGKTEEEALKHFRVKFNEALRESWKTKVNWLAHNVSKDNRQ
The experiment in a line: biochemical.
Description: Inhibition of human N-terminal poly-His tagged-PI3Kdelta expressed in Sf9 baculovirus system co-expressing p85alpha after 20 mins by AlphaScreen assay

Data set [2] concerns the target Phosphatidylinositol 4,5-bisphosphate 3-kinase catalytic subunit gamma isoform (Homo sapiens, UniProt P48736). Nature of the data set: biochemical.
Description: Inhibition of human N-terminal poly-His tagged-PI3Kgamma expressed in Sf9 baculovirus system co-expressing p85alpha after 20 mins by AlphaScreen assay
The target in data set [3] is Phosphatidylinositol 4,5-bisphosphate 3-kinase catalytic subunit beta isoform (Homo sapiens, UniProt P42338). The experiment in a line: biochemical.
Description: Inhibition of human N-terminal poly-His tagged-PI3Kbeta expressed in Sf9 baculovirus system co-expressing p85alpha after 20 mins by AlphaScreen assay
A further data set is described as follows: in vitro. The settings on record: rat, liver microsomes. (In general: Liver microsomes are a subcellular fraction often used to study metabolism.)
Data set [4] concerns the target Serine/threonine-protein kinase B-raf (Homo sapiens, UniProt P15056, V600E).
The target of data set [5] is Phosphatidylinositol 4,5-bisphosphate 3-kinase catalytic subunit alpha isoform (Homo sapiens, UniProt P42336). Nature of the data set: biochemical.
Description: Inhibition of human N-terminal poly-His tagged-PI3Kalpha expressed in Sf9 baculovirus system co-expressing p85alpha after 20 mins by AlphaScreen assay
The target in data set [6] is Serine/threonine-protein kinase mTOR (Homo sapiens, UniProt P42345).
Description: Inhibition of recombinant GST-tagged mTOR-mediated 4EBP1 phosphorylation after 90 mins by FRET assay

Serine/threonine-protein kinase B-raf, sequence (P15056 2-766 V600E limits assumed): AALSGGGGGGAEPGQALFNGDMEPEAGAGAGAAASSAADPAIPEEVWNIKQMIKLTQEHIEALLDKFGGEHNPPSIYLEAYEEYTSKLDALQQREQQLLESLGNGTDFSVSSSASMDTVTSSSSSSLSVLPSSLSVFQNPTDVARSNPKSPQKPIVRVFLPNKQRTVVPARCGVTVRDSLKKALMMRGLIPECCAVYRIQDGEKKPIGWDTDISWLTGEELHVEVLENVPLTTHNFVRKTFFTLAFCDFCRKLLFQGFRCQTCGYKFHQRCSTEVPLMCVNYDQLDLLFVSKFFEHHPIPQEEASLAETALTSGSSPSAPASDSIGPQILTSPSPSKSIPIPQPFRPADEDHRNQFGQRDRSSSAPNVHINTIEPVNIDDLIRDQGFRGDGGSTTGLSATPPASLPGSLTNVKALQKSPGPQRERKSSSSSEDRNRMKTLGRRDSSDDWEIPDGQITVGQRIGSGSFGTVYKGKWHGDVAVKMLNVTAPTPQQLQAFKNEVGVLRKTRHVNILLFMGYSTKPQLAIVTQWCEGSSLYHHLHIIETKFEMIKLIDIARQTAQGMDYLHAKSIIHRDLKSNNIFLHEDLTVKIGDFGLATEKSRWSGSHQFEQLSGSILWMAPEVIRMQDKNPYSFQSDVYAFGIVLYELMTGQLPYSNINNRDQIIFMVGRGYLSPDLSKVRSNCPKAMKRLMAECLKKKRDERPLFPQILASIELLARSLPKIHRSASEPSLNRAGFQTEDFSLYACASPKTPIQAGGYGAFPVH
Phosphatidylinositol 4,5-bisphosphate 3-kinase catalytic subunit gamma isoform, sequence (P48736 whole entry, canonical isoform): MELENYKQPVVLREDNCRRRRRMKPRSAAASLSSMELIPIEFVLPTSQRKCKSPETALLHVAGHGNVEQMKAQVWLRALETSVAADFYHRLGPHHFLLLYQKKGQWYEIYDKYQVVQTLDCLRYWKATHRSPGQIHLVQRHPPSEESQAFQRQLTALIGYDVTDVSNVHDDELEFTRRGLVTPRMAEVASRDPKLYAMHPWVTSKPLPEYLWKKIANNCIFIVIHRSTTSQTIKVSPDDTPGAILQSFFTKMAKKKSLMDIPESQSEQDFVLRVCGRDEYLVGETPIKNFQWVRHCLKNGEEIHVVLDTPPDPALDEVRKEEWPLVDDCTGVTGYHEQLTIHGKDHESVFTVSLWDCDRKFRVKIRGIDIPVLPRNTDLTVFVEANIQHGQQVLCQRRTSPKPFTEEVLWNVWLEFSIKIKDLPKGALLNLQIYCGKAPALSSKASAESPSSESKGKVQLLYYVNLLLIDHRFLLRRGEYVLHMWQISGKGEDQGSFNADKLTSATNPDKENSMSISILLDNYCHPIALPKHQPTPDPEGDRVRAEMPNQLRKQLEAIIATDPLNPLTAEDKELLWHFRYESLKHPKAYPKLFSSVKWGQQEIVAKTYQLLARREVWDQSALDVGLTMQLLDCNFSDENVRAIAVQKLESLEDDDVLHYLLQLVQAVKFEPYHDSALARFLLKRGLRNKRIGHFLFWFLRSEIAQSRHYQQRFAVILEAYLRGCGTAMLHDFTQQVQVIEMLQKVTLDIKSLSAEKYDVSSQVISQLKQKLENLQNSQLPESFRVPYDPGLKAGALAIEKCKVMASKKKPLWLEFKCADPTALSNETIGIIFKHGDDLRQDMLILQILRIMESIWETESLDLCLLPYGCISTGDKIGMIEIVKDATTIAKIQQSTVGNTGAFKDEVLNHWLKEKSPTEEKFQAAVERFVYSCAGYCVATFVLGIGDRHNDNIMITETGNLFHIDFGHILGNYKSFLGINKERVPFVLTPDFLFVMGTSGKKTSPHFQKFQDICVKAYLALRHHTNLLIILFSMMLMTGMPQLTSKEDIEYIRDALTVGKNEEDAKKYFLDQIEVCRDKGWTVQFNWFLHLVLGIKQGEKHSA
Phosphatidylinositol 4,5-bisphosphate 3-kinase catalytic subunit beta isoform, sequence (P42338 whole entry, canonical isoform): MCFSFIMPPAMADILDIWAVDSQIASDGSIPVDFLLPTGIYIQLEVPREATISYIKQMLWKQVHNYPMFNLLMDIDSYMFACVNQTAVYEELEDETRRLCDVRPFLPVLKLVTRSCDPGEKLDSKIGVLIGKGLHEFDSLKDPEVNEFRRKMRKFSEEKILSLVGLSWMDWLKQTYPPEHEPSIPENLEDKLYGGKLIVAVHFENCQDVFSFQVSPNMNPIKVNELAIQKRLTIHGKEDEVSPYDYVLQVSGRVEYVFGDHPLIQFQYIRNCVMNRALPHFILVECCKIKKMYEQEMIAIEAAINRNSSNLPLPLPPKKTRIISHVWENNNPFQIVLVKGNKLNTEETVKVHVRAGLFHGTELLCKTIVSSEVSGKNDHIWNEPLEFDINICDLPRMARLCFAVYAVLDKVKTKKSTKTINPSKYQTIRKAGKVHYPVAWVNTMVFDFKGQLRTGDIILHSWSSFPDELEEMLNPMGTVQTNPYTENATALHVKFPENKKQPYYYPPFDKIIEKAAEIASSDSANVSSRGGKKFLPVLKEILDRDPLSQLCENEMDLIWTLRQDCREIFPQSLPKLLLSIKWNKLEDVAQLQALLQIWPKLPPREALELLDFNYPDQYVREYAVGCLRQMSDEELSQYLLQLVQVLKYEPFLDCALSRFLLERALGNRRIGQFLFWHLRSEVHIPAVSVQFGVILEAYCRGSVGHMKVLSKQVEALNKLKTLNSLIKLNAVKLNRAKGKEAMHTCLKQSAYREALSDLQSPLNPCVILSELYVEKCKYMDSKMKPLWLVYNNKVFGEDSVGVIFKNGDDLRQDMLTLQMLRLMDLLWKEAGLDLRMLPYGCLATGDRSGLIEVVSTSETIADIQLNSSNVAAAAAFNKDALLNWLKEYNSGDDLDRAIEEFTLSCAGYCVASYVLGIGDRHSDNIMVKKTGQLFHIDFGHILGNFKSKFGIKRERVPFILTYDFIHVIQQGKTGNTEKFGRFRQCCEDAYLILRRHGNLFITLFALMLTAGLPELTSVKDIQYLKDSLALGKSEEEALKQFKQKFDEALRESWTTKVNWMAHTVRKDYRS
Phosphatidylinositol 4,5-bisphosphate 3-kinase catalytic subunit alpha isoform, sequence (P42336 whole entry, canonical isoform): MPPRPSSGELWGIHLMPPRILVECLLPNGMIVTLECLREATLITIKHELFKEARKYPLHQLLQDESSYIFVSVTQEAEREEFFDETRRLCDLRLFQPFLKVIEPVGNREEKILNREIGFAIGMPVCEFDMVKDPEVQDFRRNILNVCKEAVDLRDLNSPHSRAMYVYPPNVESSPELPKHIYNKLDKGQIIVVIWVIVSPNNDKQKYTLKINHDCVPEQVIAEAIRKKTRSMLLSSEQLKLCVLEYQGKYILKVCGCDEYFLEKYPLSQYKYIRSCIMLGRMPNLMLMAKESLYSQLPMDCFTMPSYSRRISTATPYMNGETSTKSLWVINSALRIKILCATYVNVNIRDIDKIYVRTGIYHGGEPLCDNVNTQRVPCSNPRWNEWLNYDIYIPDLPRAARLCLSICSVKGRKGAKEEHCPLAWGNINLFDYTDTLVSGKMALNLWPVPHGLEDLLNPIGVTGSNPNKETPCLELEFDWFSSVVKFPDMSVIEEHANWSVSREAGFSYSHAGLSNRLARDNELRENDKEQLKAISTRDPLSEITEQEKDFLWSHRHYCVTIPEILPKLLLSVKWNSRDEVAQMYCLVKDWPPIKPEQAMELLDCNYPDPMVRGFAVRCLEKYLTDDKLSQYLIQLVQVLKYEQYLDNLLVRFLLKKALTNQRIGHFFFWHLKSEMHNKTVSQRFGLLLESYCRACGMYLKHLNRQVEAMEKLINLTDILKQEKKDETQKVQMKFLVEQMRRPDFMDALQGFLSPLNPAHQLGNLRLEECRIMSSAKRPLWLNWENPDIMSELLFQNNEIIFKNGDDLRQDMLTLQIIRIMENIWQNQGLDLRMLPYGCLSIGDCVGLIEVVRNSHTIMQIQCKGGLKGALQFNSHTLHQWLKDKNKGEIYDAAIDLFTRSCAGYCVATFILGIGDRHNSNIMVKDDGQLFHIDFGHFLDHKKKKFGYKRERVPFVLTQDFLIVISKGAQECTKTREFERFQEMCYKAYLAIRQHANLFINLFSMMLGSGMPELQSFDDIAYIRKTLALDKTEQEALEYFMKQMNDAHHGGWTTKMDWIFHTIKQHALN
Description for in vitro: Intrinsic clearance in rat liver microsomes

On to `Cc1nc(N)cc(-c2cccnc2Nc2cccc(O)c2)n1`, for which the Ki (commonly a dissociation constant, usually derived from enzyme kinetics or from competition with a known ligand) in data set [1] was 56 nM; in data set [2], 51 nM; in data set [3], 35 nM; in data set [5] it was 28 nM. Also, the microsomal CLint (as a rule, the capacity of the preparation to metabolise the compound, expressed as a volume cleared per time) in the data set “in vitro” was 62 µL/min/mg. The IC50 (usually the concentration that gives 50% inhibition) in data set [4] is over 1000 nM; in data set [6] it was 360 nM.
`Cc1nc(NCC#N)nc(-n2c(Nc3cccc(O)c3)nc3ccccc32)n1`: the Ki turned out to be 11 nM in data set [1], 69 nM in data set [2], 43 nM in data set [3] and 16 nM in data set [5]. Moreover, the intrinsic clearance (microsomal CLint) in the data set “in vitro” turned out to be 394 µL/min/mg. In data set [4], this molecule returned an IC50 of 1200 nM.
Regarding `Cc1ncnc(-n2c(Nc3cccc(O)c3)nc3ccccc32)n1`, the Ki in data set [1] was determined as 3 nM; in data set [2] it was 4 nM; in data set [3], 4 nM; in data set [5], 2 nM. This molecule returned a microsomal CLint in “in vitro” of 218 µL/min/mg. The IC50 in data set [4] is over 1000 nM; in data set [6], 7 nM.
As for `COc1ccc(Nc2nccnc2-c2nc(C)nc(N)n2)cn1`, the Ki in data set [1] came to 300 nM; in data set [2], 90 nM; in data set [3], 740 nM; in data set [5], 520 nM. The molecule further yielded an intrinsic clearance (microsomal CLint) in the data set “in vitro” of 41 µL/min/mg. This molecule also displayed an IC50 in data set [4] of over 1000 nM.
As to `Cc1nc(-c2cccnc2Nc2cccc3[nH]ncc23)c2nc[nH]c2n1`, the Ki came to 350 nM in data set [1] and 12 nM in data set [2]. In the data set “in vitro”, this molecule returned a microsomal CLint of 44 µL/min/mg. In data set [4], this molecule came in with an IC50 of over 1000 nM.
Take `Cc1nc(N)cc(-c2cccnc2Nc2cccc3[nH]ncc23)n1`: the Ki in data set [1] was 370 nM; in data set [2] it was 91 nM; in data set [3], 110 nM; in data set [5] it was 150 nM. Besides, the microsomal CLint in “in vitro” was determined as 75 µL/min/mg. Also, the figures for the IC50 in data set [4] and in data set [6] were over 1000 nM and over 10000 nM, respectively.
As for `COc1ccc(Nc2ccccc2-c2nc(C)nc(N)n2)cn1`, the Ki was 310 nM in data set [1], 380 nM in data set [2], 580 nM in data set [3] and 640 nM in data set [5]. This molecule had an intrinsic metabolic clearance (microsomal CLint) in “in vitro” of 190 µL/min/mg. The molecule also displayed an IC50 in data set [4] of over 1000 nM.
For `COc1ccc(Nc2nccnc2-c2cc(N)nc(C)n2)cn1`, the inhibitory constant (Ki) in data set [1] is 130 nM; in data set [2], 58 nM; in data set [3], 130 nM; in data set [5], 120 nM. In addition, the microsomal CLint in “in vitro” was found to be 72 µL/min/mg. For the same molecule, in data set [4], the IC50 was over 1000 nM.
As for `Cc1cc(-c2cccnc2Oc2cccc3[nH]ccc23)nc(N)n1`, the Ki in data set [1], in data set [2], in data set [3] and in data set [5] was over 10000 nM in each case. Besides, the microsomal CLint in the data set “in vitro” worked out at 218 µL/min/mg. The IC50 is over 1000 nM in data set [4] and over 10000 nM in data set [6].
Regarding `COc1ccc(N(C)c2ncccc2-c2nc(C)nc(N)n2)cn1`, the Ki in data set [1], in data set [2], in data set [3] and in data set [5] was over 10000 nM throughout. Besides, the microsomal CLint in the data set “in vitro” turned out to be 41 µL/min/mg. Moreover, the IC50 in data set [4] was over 1000 nM; in data set [6] it was over 10000 nM.
Take `COc1ccc(Nc2ncncc2-c2nc(C)nc(N)n2)cn1`: the inhibitory constant (Ki) in data set [1] was 62 nM; in data set [2], 59 nM; in data set [3] it was 81 nM; in data set [5] it was 120 nM. This molecule registered a microsomal CLint in “in vitro” of 110 µL/min/mg. For the same molecule, the IC50 in data set [4] was over 1000 nM.
As to `Cc1nc(N)nc(-c2cccnc2Nc2cccc(O)c2)n1`, the figures for the Ki in data set [1] and in data set [3] were 9 nM and 3 nM, respectively. Besides, the microsomal CLint in “in vitro” came to 80 µL/min/mg. Moreover, the IC50 in data set [4] was over 1000 nM.
Turning to `COc1ccc(Nc2ncccc2-c2nc(C)nc3nc[nH]c23)cn1`, the Ki in data set [2] came to 12 nM; in data set [3], 45 nM. Besides, the microsomal CLint in “in vitro” was 68 µL/min/mg. The same molecule showed an IC50 in data set [4] of over 1000 nM.
For the molecule `COc1ccc(Nc2ncccc2-c2nc(C)nc(N)n2)cn1`, the Ki came out at 37 nM in data set [1], 29 nM in data set [2] and 23 nM in data set [3]. Besides, the microsomal CLint in the data set “in vitro” is 51 µL/min/mg. This molecule also returned a concentration for half-maximal inhibition (IC50) in data set [4] of over 1000 nM.
